Data taken from the NIST ThermoML archive (doi:10.1021/je7001946).

Key:
[1] = mn = molality of the nth substance listed, in mol/kg; conditions: 101.3 kPa, Liquid; for speed of sound: Pulse-echo method
[2] = 101.3 kPa, Liquid

CC#N [acetonitrile] + [Cl-].[Cl-].[Zn+2]
[1], m2 = 0
Conditions	mass density [kg/m3]
288.15 K	787.303
293.15 K	781.922
298.15 K	776.522
303.15 K	771.095
308.15 K	765.637
313.15 K	760.151
323.15 K	749.071

CC#N [acetonitrile] + [Cl][Co][Cl]
[1], m2 = 0
Conditions	mass density [kg/m3]
288.15 K	787.297
293.15 K	781.919
298.15 K	776.518
303.15 K	771.09
308.15 K	765.631
313.15 K	760.142
323.15 K	749.056

CC#N [acetonitrile] + [Br][Co][Br]
[1], m2 = 0
Conditions	mass density [kg/m3]	speed of sound [m/s]
288.15 K	787.315	–
293.15 K	781.939	–
298.15 K	776.538	1278.3
303.15 K	771.112	–
308.15 K	765.653	–
313.15 K	760.164	–
323.15 K	749.073	–

CC#N [acetonitrile] + [Br-].[Br-].[Mn+2]
[1], m2 = 0
Conditions	mass density [kg/m3]
288.15 K	787.299
293.15 K	781.923
298.15 K	776.525
303.15 K	771.097
308.15 K	765.64
313.15 K	760.148
323.15 K	749.055

[Cl-].[Cl-].[Zn+2] [zinc chloride] + CC#N
mass density [kg/m3], [1]
Conditions	m1 = 0.05257	m1 = 0.06571	m1 = 0.07576	m1 = 0.08438	m1 = 0.1077	m1 = 0.128	m1 = 0.1487	m1 = 0.1684	m1 = 0.1902	m1 = 0.2114
288.15 K	791.935	793.095	794	794.764	796.85	798.676	800.536	802.335	804.302	806.244
293.15 K	786.551	787.712	788.618	789.38	791.469	793.289	795.155	796.955	798.922	800.862
298.15 K	781.15	782.313	783.217	783.985	786.068	787.887	789.746	791.541	793.519	795.456
303.15 K	775.724	776.886	777.79	778.553	780.64	782.455	784.317	786.115	788.091	790.032
308.15 K	770.266	771.431	772.33	773.096	775.184	777.003	778.858	780.661	782.635	784.575
313.15 K	764.781	765.94	766.841	767.607	769.697	771.516	773.372	775.165	777.148	779.089
323.15 K	753.694	754.859	755.76	756.526	758.618	760.435	762.295	764.103	766.072	768.014

CC#N [acetonitrile] + [Br-].[Br-].[Zn+2]
[1], m2 = 0
Conditions	mass density [kg/m3]
288.15 K	787.313
293.15 K	781.935
298.15 K	776.535
303.15 K	771.106
308.15 K	765.65
313.15 K	760.159
323.15 K	749.07

[Cl][Co][Cl] [cobalt chloride] + CC#N
[1]
Conditions	mass density, 288.15 K [kg/m3]	mass density, 293.15 K [kg/m3]	mass density, 298.15 K [kg/m3]	mass density, 303.15 K [kg/m3]	mass density, 308.15 K [kg/m3]	mass density, 313.15 K [kg/m3]	mass density, 323.15 K [kg/m3]	speed of sound, 298.15 K [m/s]
m1 = 0.08764	795.418	790.014	784.59	779.137	773.654	768.139	756.997	1279.8
m1 = 0.1171	798.185	792.779	787.348	781.889	776.401	770.881	759.736	1280.5
m1 = 0.146	800.89	795.475	790.038	784.571	779.078	773.545	762.939	1281.1
m1 = 0.1743	803.599	798.184	792.742	787.274	781.773	776.24	765.073	1281.8
m1 = 0.2031	806.356	800.934	795.487	790.011	784.51	778.973	767.796	1282.5
m1 = 0.2318	809.121	803.697	798.244	792.763	787.256	781.714	770.528	1283.2
m1 = 0.26	811.836	806.407	800.953	795.467	789.954	784.407	773.206	1284
m1 = 0.2873	814.493	809.058	803.595	798.109	792.59	787.039	775.843	1284.8

CC#N [acetonitrile]
[2]
Conditions	mass density
288.15 K	787.303 kg/m3 [middle of 5 runs]
293.15 K	781.923 kg/m3 [middle of 5 runs]
298.15 K	776.525 kg/m3 [middle of 5 runs]
303.15 K	771.097 kg/m3 [middle of 5 runs]
308.15 K	765.64 kg/m3 [middle of 5 runs]
313.15 K	760.151 kg/m3 [middle of 5 runs]
323.15 K	749.07 kg/m3 [middle of 5 runs]

Conditions	speed of sound [m/s]
[2], 298.15 K, Pulse-echo method	1278.3
